Measurements reported in the supplement of paper PMC10307832.

What was measured:
Experiment in all cases: relative viability (nuclei count vs DMSO), 5 days (fraction); higher = more cells survive
Linifanib + Palbociclib = compound: Cc1ccc(F)c(NC(=O)Nc2ccc(-c3cccc4[nH]nc(N)c34)cc2)c1 [Linifanib] + CC(=O)c1c(C)c2cnc(Nc3ccc(N4CCNCC4)cn3)nc2n(C2CCCC2)c1=O [Palbociclib] (partner 0.5 µM)
Method in brief: (§1)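 For relative viability, nuclei counts in treated wells were divided by those in vehicle wells. Lung cancer cell lines had been pin-tool dosed in 1536-well plates the day after seeding and cultured for 5 days, then fixed and stained in one step (final 0.05% Triton X-100, 1% formaldehyde, 1 ug/ml Hoechst) and imaged at 4×. Doses were one drug alone or a fixed anchor-drug dose plus five library-drug doses (not always all listed) in √10 steps, and values are duplicate-plate medians.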

Linifanib + Foretinib = compound: Cc1ccc(F)c(NC(=O)Nc2ccc(-c3cccc4[nH]nc(N)c34)cc2)c1 [Linifanib] + COc1cc2c(Oc3ccc(NC(=O)C4(C(=O)Nc5ccc(F)cc5)CC4)cc3F)ccnc2cc1OCCCN1CCOCC1 [Foretinib] (partner 0.25 µM)
Method in brief: as §1

Linifanib + Olaparib = compound: Cc1ccc(F)c(NC(=O)Nc2ccc(-c3cccc4[nH]nc(N)c34)cc2)c1 [Linifanib] + O=C(c1cc(Cc2n[nH]c(=O)c3ccccc23)ccc1F)N1CCN(C(=O)C2CC2)CC1 [Olaparib] (partner 8 µM)
Method in brief: as §1

Linifanib + AZD7762 = compound: Cc1ccc(F)c(NC(=O)Nc2ccc(-c3cccc4[nH]nc(N)c34)cc2)c1 [Linifanib] + NC(=O)Nc1cc(-c2cccc(F)c2)sc1C(=O)N[C@H]1CCCNC1 [AZD7762] (partner 0.2 µM)
Method in brief: as §1

Linifanib + Dasatinib = compound: Cc1ccc(F)c(NC(=O)Nc2ccc(-c3cccc4[nH]nc(N)c34)cc2)c1 [Linifanib] + Cc1nc(Nc2ncc(C(=O)Nc3c(C)cccc3Cl)s2)cc(N2CCN(CCO)CC2)n1 [Dasatinib] (partner 0.075 µM)
Method in brief: as §1

Linifanib + Phenformin = compound: Cc1ccc(F)c(NC(=O)Nc2ccc(-c3cccc4[nH]nc(N)c34)cc2)c1 [Linifanib] + N=C(N)NC(=N)NCCc1ccccc1 [Phenformin] (partner 250 µM)
Method in brief: as §1

Cell Line | relative viability (Linifanib + Palbociclib; first compound 0.03162 µM) | relative viability (Linifanib + Palbociclib; first compound 0.1 µM) | relative viability (Linifanib + Palbociclib; first compound 0.3162 µM) | relative viability (Linifanib + Foretinib; first compound 0.03162 µM) | relative viability (Linifanib + Foretinib; first compound 0.1 µM) | relative viability (Linifanib + Foretinib; first compound 0.3162 µM) | relative viability (Linifanib + Olaparib; first compound 0.03162 µM) | relative viability (Linifanib + Olaparib; first compound 0.1 µM) | relative viability (Linifanib + Olaparib; first compound 0.3162 µM) | relative viability (Linifanib + AZD7762; first compound 0.03162 µM) | relative viability (Linifanib + AZD7762; first compound 0.1 µM) | relative viability (Linifanib + AZD7762; first compound 0.3162 µM) | relative viability (Linifanib + Dasatinib; first compound 0.03162 µM) | relative viability (Linifanib + Dasatinib; first compound 0.1 µM) | relative viability (Linifanib + Dasatinib; first compound 0.3162 µM) | relative viability (Linifanib + Phenformin; first compound 0.03162 µM) | relative viability (Linifanib + Phenformin; first compound 0.1 µM) | relative viability (Linifanib + Phenformin; first compound 0.3162 µM)
NCI-H3122 | 0.19 | 0.196 | 0.179 | 0.946 | 0.965 | 0.932 | 0.641 | 0.637 | 0.61 | 1.01 | 1.04 | 0.977 | 0.908 | 0.908 | 0.877 | 0.381 | 0.399 | 0.362
PC-3 [JPC-3] | 0.615 | 0.537 | 0.487 | 1.05 | 0.973 | 0.993 | 1.09 | 1.14 | 1.13 | 0.796 | 0.856 | 0.776 | 1.04 | 1.01 | 0.972 | 0.491 | 0.474 | 0.442
PC-14 | 0.444 | 0.584 | 0.463 | 0.976 | 0.951 | 0.914 | 0.353 | 0.231 | 0.256 | 0.377 | 0.491 | 0.262 | 0.259 | 0.262 | 0.266 | 0.557 | 0.59 | 0.491
RERF-LC-KJ | 1.07 | 1.1 | 1.05 | 0.796 | 0.932 | 0.814 | 0.875 | 1.08 | 0.892 | 1.03 | 1.01 | 0.938 | 0.836 | 0.983 | 0.937 | 0.404 | 0.479 | 0.439
SW 900 | 0.551 | 0.603 | 0.514 | 0.925 | 0.987 | 0.666 | 0.909 | 1.04 | 0.75 | 0.523 | 0.656 | 0.533 | 0.824 | 0.548 | 0.578 | 0.659 | 0.779 | 0.575
